In ChEMBL document CHEMBL1201862, “PubChem BioAssay data set” (2004):
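Protocol summary: plate cells (96-well), add compound at 5 concentrations, incubate 48 h, interpolate endpoints linearly. GI50 is the concentration that inhibits growth by half.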 Calls of active or inactive are those of the source. No stated cut-off is given here; in the data, active = GI50 up to about 1.1 µM and inactive = higher. *1 amine or outer side, *2 acyl side, *3 side chain or, on linkers, in order; H or OH if unused. Where a SMILES comes first, the peptide text is derived from it. Bridges are numbered along the chain shown (N, C = ends). [ ]: non-standard residue; d: D form. The star is where a group is joined. ξ: configuration not given here. ξOrn(4,5-diOH) = O=C(C(CC(O)C(O)N[*:3])N[*:1])[*:2]; ξhTyr(βξ-OH,γξ-OH) = NC(C(=O)O)C(O)C(O)c1ccc(O)cc1; ξPro(3ξ-OH,4ξ-Me) = CC1CNC(C(=O)O)C1O; X55 = CCCCC/C=C/C/C=C\CCCCCCCC(=O)*; Hyp = O=C(O)[CH]1C[CH](O)CN1

How the values were obtained:
Test in all cases: inhibition of tumour cell growth, NCI panel, 48 h
SW-620 = test system: SW-620
OVCAR-8 = test system: OVCAR-8
SF-295 = test system: SF-295
CCRF-CEM = test system: CCRF-CEM
OVCAR-5 = test system: OVCAR-5
MDA-N = test system: MDA-N
786-0 = test system: 786-0
UO-31 = test system: UO-31
HCC 2998 = test system: HCC 2998
MDA-MB-231 = test system: MDA-MB-231
UACC-257 = test system: UACC-257
M14 = test system: M14
K562 = test system: K562
OVCAR-3 = test system: OVCAR-3
ACHN = test system: ACHN
A549 = test system: A549
IGROV-1 = test system: IGROV-1
HL-60 = test system: HL-60
NCI-H226 = test system: NCI-H226
A498 = test system: A498

SMILES	GI50 (SW-620)	GI50 (OVCAR-8)	GI50 (SF-295)	GI50 (CCRF-CEM)	GI50 (OVCAR-5)	GI50 (MDA-N)	GI50 (786-0)	GI50 (UO-31)	GI50 (HCC 2998)	GI50 (MDA-MB-231)	GI50 (UACC-257)	GI50 (M14)	GI50 (K562)	GI50 (OVCAR-3)	GI50 (ACHN)	GI50 (A549)	GI50 (IGROV-1)	GI50 (HL-60)	GI50 (NCI-H226)	GI50 (A498)
CCCCC/C=C/C/C=C\CCCCCCCC(=O)NC1CC(O)C(O)NC(=O)C2C(O)C(C)CN2C(=O)C(C(C)O)NC(=O)C(C(O)C(O)c2ccc(O)cc2)NC(=O)C2CC(O)CN2C(=O)C(C(C)O)NC1=O (stereo not drawn) (X55-[ξOrn(4,5-diOH)]T[Hyp][ξhTyr(βξ-OH,γξ-OH)]T[ξPro(3ξ-OH,4ξ-Me)]; lactam 1-C; configuration not given here)	> 100 µM (inactive)	> 100 µM (inactive)	> 100 µM (inactive)	> 100 µM (inactive)	> 100 µM (inactive)	> 100 µM (inactive)	> 100 µM (inactive)	> 100 µM (inactive)	> 100 µM (inactive)	> 100 µM (inactive)	> 100 µM (inactive)	> 100 µM (inactive)	> 100 µM (inactive)	> 100 µM (inactive)	> 100 µM (inactive)	> 100 µM (inactive)	> 100 µM (inactive)	> 100 µM (inactive)	–	–
O=C1N(c2ccccc2)N=C2c3ccncc3C3=NN(c4ccccc4)C(=O)C123 (centres undefined)	2.53 µM (inactive)	> 100 µM (inactive)	4.37 µM (inactive)	> 40.9 µM (inactive)	> 65.2 µM (inactive)	–	> 100 µM (inactive)	2.35 µM (inactive)	6.68 µM (inactive)	> 100 µM (inactive)	27.1 µM (inactive)	–	0.252 µM (active)	> 100 µM (inactive)	> 43.6 µM (inactive)	> 32.7 µM (inactive)	> 51.9 µM (inactive)	0.619 µM (active)	> 100 µM (inactive)	> 100 µM (inactive)
N/N=C1/C(=N/O)CCc2nonc21	> 100 µM (inactive)	> 100 µM (inactive)	> 100 µM (inactive)	> 100 µM (inactive)	> 100 µM (inactive)	> 100 µM (inactive)	> 100 µM (inactive)	28.6 µM (inactive)	> 100 µM (inactive)	> 100 µM (inactive)	> 100 µM (inactive)	> 100 µM (inactive)	> 100 µM (inactive)	> 100 µM (inactive)	> 100 µM (inactive)	> 100 µM (inactive)	> 100 µM (inactive)	> 100 µM (inactive)	24.6 µM (inactive)	–
CN1C2=Nc3n(C)c4ccccc4[n+]3CN2c2ccccc21	24.3 µM (inactive)	57.1 µM (inactive)	95.7 µM (inactive)	47.4 µM (inactive)	84.1 µM (inactive)	17.8 µM (inactive)	36.2 µM (inactive)	> 100 µM (inactive)	–	34.6 µM (inactive)	32.1 µM (inactive)	43.7 µM (inactive)	29.5 µM (inactive)	10.8 µM (inactive)	> 100 µM (inactive)	37.6 µM (inactive)	29.9 µM (inactive)	> 100 µM (inactive)	–	–
COC(=O)c1ccccc1Nc1ccccc1C(=O)OC	> 100 µM (inactive)	89.7 µM (inactive)	39.4 µM (inactive)	> 100 µM (inactive)	> 100 µM (inactive)	> 100 µM (inactive)	53.5 µM (inactive)	–	–	65.2 µM (inactive)	> 100 µM (inactive)	> 100 µM (inactive)	> 100 µM (inactive)	79.6 µM (inactive)	> 100 µM (inactive)	93.1 µM (inactive)	89.3 µM (inactive)	> 100 µM (inactive)	23.7 µM (inactive)	52.8 µM (inactive)
Cc1nc2c(cc1C(=O)NN)c(=O)n(C)c(=O)n2C	> 100 µM (inactive)	> 100 µM (inactive)	> 100 µM (inactive)	> 100 µM (inactive)	> 100 µM (inactive)	> 100 µM (inactive)	> 100 µM (inactive)	> 100 µM (inactive)	> 100 µM (inactive)	> 100 µM (inactive)	> 100 µM (inactive)	> 100 µM (inactive)	> 100 µM (inactive)	> 100 µM (inactive)	> 100 µM (inactive)	> 100 µM (inactive)	> 100 µM (inactive)	–	> 100 µM (inactive)	–
Nc1cccc2nnccc12	> 100 µM (inactive)	> 100 µM (inactive)	> 100 µM (inactive)	> 100 µM (inactive)	> 100 µM (inactive)	> 100 µM (inactive)	> 100 µM (inactive)	> 100 µM (inactive)	–	> 100 µM (inactive)	> 100 µM (inactive)	> 100 µM (inactive)	–	–	> 100 µM (inactive)	> 100 µM (inactive)	> 100 µM (inactive)	> 100 µM (inactive)	> 100 µM (inactive)	–
O=C(NNC(=O)c1ccco1)c1ccco1	> 100 µM (inactive)	> 100 µM (inactive)	> 100 µM (inactive)	> 100 µM (inactive)	> 100 µM (inactive)	> 100 µM (inactive)	> 100 µM (inactive)	> 100 µM (inactive)	–	> 100 µM (inactive)	> 100 µM (inactive)	> 100 µM (inactive)	> 100 µM (inactive)	> 100 µM (inactive)	–	> 100 µM (inactive)	> 100 µM (inactive)	> 100 µM (inactive)	> 100 µM (inactive)	> 100 µM (inactive)
O=C1COc2cc(N3CCN(c4cccc(C(F)(F)F)c4)CC3)ccc2N1	> 100 µM (inactive)	> 100 µM (inactive)	> 100 µM (inactive)	> 100 µM (inactive)	> 100 µM (inactive)	> 100 µM (inactive)	> 100 µM (inactive)	> 100 µM (inactive)	> 100 µM (inactive)	> 100 µM (inactive)	> 100 µM (inactive)	> 100 µM (inactive)	> 100 µM (inactive)	> 100 µM (inactive)	> 100 µM (inactive)	> 100 µM (inactive)	> 100 µM (inactive)	> 100 µM (inactive)	> 100 µM (inactive)	–
Cc1cc(S(N)(=O)=O)c(SCc2nc(N)nc(N(C)C)n2)cc1Cl	> 10 µM (inactive)	> 10 µM (inactive)	> 10 µM (inactive)	> 10 µM (inactive)	> 10 µM (inactive)	> 10 µM (inactive)	> 10 µM (inactive)	> 10 µM (inactive)	> 10 µM (inactive)	–	> 10 µM (inactive)	> 10 µM (inactive)	> 10 µM (inactive)	> 10 µM (inactive)	> 10 µM (inactive)	> 10 µM (inactive)	> 10 µM (inactive)	> 10 µM (inactive)	> 10 µM (inactive)	> 10 µM (inactive)
O/N=C1/CCCCC1NO (centres undefined)	> 100 µM (inactive)	> 100 µM (inactive)	> 100 µM (inactive)	> 100 µM (inactive)	> 100 µM (inactive)	> 100 µM (inactive)	> 100 µM (inactive)	> 100 µM (inactive)	> 100 µM (inactive)	> 100 µM (inactive)	> 100 µM (inactive)	> 100 µM (inactive)	> 100 µM (inactive)	> 100 µM (inactive)	> 100 µM (inactive)	> 100 µM (inactive)	> 100 µM (inactive)	> 100 µM (inactive)	> 100 µM (inactive)	–
O=C(CCl)N1CCN(c2ccccn2)CC1	23.8 µM (inactive)	26.2 µM (inactive)	> 10 µM (inactive)	19.9 µM (inactive)	20.7 µM (inactive)	25.2 µM (inactive)	18.4 µM (inactive)	21.8 µM (inactive)	19.4 µM (inactive)	–	30.3 µM (inactive)	16.6 µM (inactive)	31.7 µM (inactive)	–	31.6 µM (inactive)	> 10 µM (inactive)	21.3 µM (inactive)	24.3 µM (inactive)	–	17 µM (inactive)
COC(=O)c1ccccc1CC1Cc2c(C)ccc(C)c2C1=O (centres undefined)	35.6 µM (inactive)	42.1 µM (inactive)	28.7 µM (inactive)	22.2 µM (inactive)	49.1 µM (inactive)	–	36.3 µM (inactive)	25.8 µM (inactive)	36.9 µM (inactive)	16 µM (inactive)	16.2 µM (inactive)	34.8 µM (inactive)	33.5 µM (inactive)	34.4 µM (inactive)	33.8 µM (inactive)	40.2 µM (inactive)	32 µM (inactive)	23.3 µM (inactive)	38.9 µM (inactive)	25.8 µM (inactive)
CNc1cc(OCc2ccccc2)c(OC)cc1C(=O)N1CCC[C@H]1CO	> 100 µM (inactive)	> 100 µM (inactive)	> 100 µM (inactive)	81.5 µM (inactive)	> 100 µM (inactive)	> 100 µM (inactive)	> 100 µM (inactive)	63.2 µM (inactive)	–	> 100 µM (inactive)	> 100 µM (inactive)	> 100 µM (inactive)	–	–	> 100 µM (inactive)	> 100 µM (inactive)	> 100 µM (inactive)	44.1 µM (inactive)	> 100 µM (inactive)	> 100 µM (inactive)
CC(=O)OC(COc1ccc2c(c1)[n+]([O-])nc(N)[n+]2[O-])CN1CCCCC1 (centres undefined)	17.1 µM (inactive)	13.8 µM (inactive)	–	6.1 µM (inactive)	20.8 µM (inactive)	–	9.98 µM (inactive)	25.3 µM (inactive)	8.71 µM (inactive)	5.61 µM (inactive)	12.5 µM (inactive)	16.2 µM (inactive)	7.69 µM (inactive)	13.6 µM (inactive)	6.79 µM (inactive)	15.3 µM (inactive)	–	5.12 µM (inactive)	15.3 µM (inactive)	4.36 µM (inactive)
